Measurements from the supplement of paper PMC10307832.

Tests used:
Test in all cases: relative viability (nuclei count vs DMSO), 5 days (fraction); higher = more cells survive
Sorafenib + Trametinib = compound: CNC(=O)c1cc(Oc2ccc(NC(=O)Nc3ccc(Cl)c(C(F)(F)F)c3)cc2)ccn1 [Sorafenib] + CC(=O)Nc1cccc(-n2c(=O)n(C3CC3)c(=O)c3c(Nc4ccc(I)cc4F)n(C)c(=O)c(C)c32)c1 [Trametinib] (partner 0.02 µM)
Outline: (§1)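 Each reported value is a median over duplicate plates. It expresses relative viability: treated-well nuclei count divided by vehicle-well nuclei count. Lung cancer cell lines in 1536-well plates were dosed by pin tool a day after seeding, alone with one drug or with a fixed anchor-drug dose plus five library-drug doses (not always all listed) in √10 steps, and nuclei were counted after 5 days.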

Sorafenib + Pemetrexed = compound: CNC(=O)c1cc(Oc2ccc(NC(=O)Nc3ccc(Cl)c(C(F)(F)F)c3)cc2)ccn1 [Sorafenib] + Nc1nc2[nH]cc(CCc3ccc(C(=O)N[C@@H](CCC(=O)O)C(=O)O)cc3)c2c(=O)[nH]1 [Pemetrexed] (partner 0.2 µM)
Outline: as §1

Sorafenib + AZD7762 = compound: CNC(=O)c1cc(Oc2ccc(NC(=O)Nc3ccc(Cl)c(C(F)(F)F)c3)cc2)ccn1 [Sorafenib] + NC(=O)Nc1cc(-c2cccc(F)c2)sc1C(=O)N[C@H]1CCCNC1 [AZD7762] (partner 0.2 µM)
Outline: as §1

Sorafenib + Phenformin = compound: CNC(=O)c1cc(Oc2ccc(NC(=O)Nc3ccc(Cl)c(C(F)(F)F)c3)cc2)ccn1 [Sorafenib] + N=C(N)NC(=N)NCCc1ccccc1 [Phenformin] (partner 250 µM)
Outline: as §1

Sorafenib + Pictilisib = compound: CNC(=O)c1cc(Oc2ccc(NC(=O)Nc3ccc(Cl)c(C(F)(F)F)c3)cc2)ccn1 [Sorafenib] + CS(=O)(=O)N1CCN(Cc2cc3nc(-c4cccc5[nH]ncc45)nc(N4CCOCC4)c3s2)CC1 [Pictilisib] (partner 1 µM)
Outline: as §1

Cell Line	relative viability (Sorafenib + Trametinib; first compound 0.08 µM)	relative viability (Sorafenib + Trametinib; first compound 0.253 µM)	relative viability (Sorafenib + Trametinib; first compound 2.53 µM)	relative viability (Sorafenib + Trametinib; first compound 8 µM)	relative viability (Sorafenib + Pemetrexed; first compound 0.08 µM)	relative viability (Sorafenib + Pemetrexed; first compound 0.253 µM)	relative viability (Sorafenib + Pemetrexed; first compound 2.53 µM)	relative viability (Sorafenib + Pemetrexed; first compound 8 µM)	relative viability (Sorafenib + AZD7762; first compound 0.08 µM)	relative viability (Sorafenib + AZD7762; first compound 0.253 µM)	relative viability (Sorafenib + AZD7762; first compound 2.53 µM)	relative viability (Sorafenib + AZD7762; first compound 8 µM)	relative viability (Sorafenib + Phenformin; first compound 0.08 µM)	relative viability (Sorafenib + Phenformin; first compound 0.253 µM)	relative viability (Sorafenib + Phenformin; first compound 2.53 µM)	relative viability (Sorafenib + Phenformin; first compound 8 µM)	relative viability (Sorafenib + Pictilisib; first compound 0.08 µM)	relative viability (Sorafenib + Pictilisib; first compound 0.253 µM)	relative viability (Sorafenib + Pictilisib; first compound 2.53 µM)	relative viability (Sorafenib + Pictilisib; first compound 8 µM)
LCLC-103H	0.68	0.731	0.691	0.674	0.526	0.437	0.422	0.451	0.778	0.652	0.769	0.843	0.401	0.309	0.336	0.344	0.689	0.581	0.698	0.758
LK-2	0.78	0.764	0.512	0.239	0.331	0.254	0.303	0.194	0.394	0.338	0.413	0.134	0.562	0.274	0.38	0.0899	0.588		0.722	0.374
LOU-NH91	0.782	0.769	0.837	0.746	0.419	0.37	0.436		0.804	0.721	0.876	0.671	0.784	0.678	0.73	0.489	0.557	0.543	0.585	0.491
LU99A	0.509	0.404	0.252	0.263	0.195	0.166	0.193	0.138	0.369	0.307	0.321	0.155	0.978	0.864	0.748	0.408	0.308	0.3	0.347	0.325
LXF-289	0.638		0.617	0.513	0.886	0.782	0.932	0.787	1.12	1.11	1.17	1.05	0.553	0.513	0.541	0.476	0.834	0.727	0.828	0.779
NCI-H23	0.406	0.397	0.288	0.225	0.764	0.609	0.716	0.421	0.193	0.323	0.229	0.159	0.829		0.726	0.74	0.474	0.445	0.39	0.362
NCI-H322M	0.769	0.52	0.455	0.481	0.728	0.618	0.739	0.763	0.65	0.511	0.533	0.595	0.813	0.67	0.807	0.795		0.593	0.62	0.695
NCI-H358	0.14	0.143	0.116	0.107	0.168	0.146	0.145	0.144	0.539		0.79	0.368	0.442	0.392	0.468	0.146	0.364	0.393	0.469	0.184
NCI-H441	0.564	0.408	0.457	0.27	0.283	0.234	0.257	0.227	1.03	0.946	0.841	0.855	0.976		0.745	0.412	0.524	0.476	0.409	0.445
NCI-H460	0.225	0.154	0.126	0.0388	0.0604	0.0653	0.0731	0.0582	0.586	0.444		0.414	0.528	0.495	0.462	0.046		0.442	0.51	0.3
NCI-H596	0.844	0.735	0.807	0.75	0.495	0.47	0.563	0.52	1.21	1	0.94	0.819	0.787	0.587	0.665	0.86	0.354	0.436	0.374	0.372
NCI-H647	0.583	0.388	0.235	0.144	0.171	0.141	0.126	0.0896	0.415	0.298	0.64	0.35	0.636	0.495	0.454	0.198	0.544		0.475	0.374
NCI-H650	0.989	0.937	0.866	0.578	0.928	0.799	0.904	0.795	1.31	0.691	0.96	0.936	0.45	0.399	0.461	0.428	0.911	0.751	0.696	0.746
NCI-H838	0.606	0.507	0.498	0.291	0.277	0.244	0.252	0.16	0.971	0.93		0.923	0.749		0.948	0.388	0.516	0.412	0.77	0.38
NCI-H1355	0.493	0.419	0.42	0.264	1.04	0.953	1.02	0.963	0.805	0.713	0.651	0.546	0.497	0.468	0.452	0.387	0.444	0.465	0.45	0.346
NCI-H1395	1.25		1.04	0.846	1		0.917		0.424		0.428	0.429	0.51	0.407	0.453	0.392	0.603	0.636	0.642	0.39
